This experiment has as its system 5-α-reductase. In words: Metabolization of 14C testosterone to DHT in reconstructed epidermis (thin-layer chromatography, phosphoimager). The settings on record: Finasterid 10 μM; control = 100. The experiment is classed as cell-based, human.

Description: • Epidermis SkinEthic (17 days, 0.63 cm^2) in culture, 37° C., 5% CO2 • Reference substance: Finasteride • Testosterone: [4-14-C]
The epidermis was precultivated for 24 hours on plates with 24 positions. The experiments with the products and the reference substance Finasterid (10 μm) were carried out three times (3 epidermises per experiment). After treatment for 24 hours, the media of the subepidermis were renewed and replaced by 300 μl of fresh culture medium. 100 μl of radioactively marked testosterone solution were applied to the upper surface (horny layer) of the epidermis (TO). After another 24 hours, the subepidermis medium was removed for analysis.
The steroids present in the culture medium were extracted for analysis of the metabolism and separated into their molecular derivatives by thin-layer chromatography (on silica gel). The quantity of transformed testosterone was determined by radioactive counting of the various spots using a phosphoimager.

As for `CC(C)(C)NC(=O)[C@H]1CC[C@H]2[C@@H]3CC[C@H]4NC(=O)C=C[C@]4(C)[C@H]3CC[C@]12C` [Finasterid, Finasteride], the “DHT formed in %” value amounted to 8%.
